Values after ≈ are worked out from the molar mass of the structure shown. Active and inactive are the calls of the source. The calls are words filed in the database; no cut-off is given here.
Columns and labels:
Escherichia coli [1] = assay: Antimicrobial activity against Escherichia coli ATCC BAA 2469 after 24 hrs by broth microdilution assay; type: functional
Staphylococcus aureus [2] = assay: Bactericidal activity against […] Staphylococcus aureus ATCC 700699 assessed as reduction in bacterial viability at 5 fold MIC incubated for 6 hrs by time kill assay relative to control; type: functional
[3] = Solubility of compound in pH 7.7 PBS buffer; type: physicochemical
Enterococcus faecium [4] = assay: Antibacterial activity against vancomycin-resistant Enterococcus faecium ATCC 700221 at 0.78 to 100 uM after 24 hrs by broth microdilution method; type: functional, organism-based; details: dose microM 0.78-100, time 24.0 hrs
Klebsiella pneumoniae [5] = assay: Antibacterial activity against Klebsiella pneumoniae ATCC 700603 after 24 hrs in presence of colistin by checkerboard assay relative to test compound MIC; type: functional
Klebsiella pneumoniae [6] = assay: Synergistic antibacterial activity against Klebsiella pneumoniae ATCC 700603 assessed as FIC after 24 hrs in presence of colistin by checkerboard assay relative to test compound MIC; type: functional
Acinetobacter baumannii [7] = assay: Synergistic antibacterial activity against Acinetobacter baumannii ATCC BAA-1605 assessed as FIC after 24 hrs in presence of colistin by checkerboard assay relative to test compound MIC; type: functional
Staphylococcus aureus [8] = assay: Antibacterial activity against vancomycin-sensitive Staphylococcus aureus T144 infected in Balb/c mouse peritonitis-sepsis model assessed as increase in survival at 5 mg/kg, ip measured for 48 hrs; type: functional, organism-based
Enterococcus faecium [9] = assay: Antibacterial activity against vancomycin-resistant Enterococcus faecium ATCC 35667 at 0.78 to 100 uM after 24 hrs by broth microdilution method; type: functional, organism-based; details: dose microM 0.78-100, time 24.0 hrs
Acinetobacter baumannii [10] = assay: Synergistic antibacterial activity against Acinetobacter baumannii ATCC BAA-1605 assessed as FIC after 24 hrs in presence of colistin by checkerboard assay relative to colistin; type: functional
Staphylococcus aureus [11] = assay: Antibacterial activity against methicillin-resistant Staphylococcus aureus USA300 LAC at 0.15 to 25 uM incubated for 24 hrs under low glucose medium by resazurin dye based fluorescence assay; type: functional, organism-based; details: dose microM 0.15-25, time 24.0 hrs
Klebsiella pneumoniae [12] = assay: Synergistic antibacterial activity against Klebsiella pneumoniae ATCC 700603 assessed as FICI after 24 hrs in presence of colistin by checkerboard assay; type: functional
Staphylococcus aureus [13] = assay: Antibacterial activity against […] Staphylococcus aureus ATCC 700699 assessed as ratio of MIC before and after 38 passages by broth microdilution method; type: functional
Enterococcus faecalis [14] = assay: Antibacterial activity against Enterococcus faecalis ATCC 29212 at 0.78 to 100 uM after 24 hrs by broth microdilution method; type: functional, organism-based; details: dose microM 0.78-100, time 24.0 hrs
Erythrocyte = assay: Hemolytic activity against sheep erythrocytes up to 100 uM measured after 1 hr; type: ADME, cell-based, Ovis aries
Escherichia coli [15] = assay: Synergistic antimicrobial activity against Escherichia coli ATCC BAA 2469 assessed as FIC after 24 hrs in presence of colistin by checkerboard assay relative to colistin; type: functional
Pseudomonas aeruginosa [16] = assay: Synergistic antibacterial activity against Pseudomonas aeruginosa ATCC 27853 assessed as FICI after 24 hrs in presence of colistin by checkerboard assay; type: functional
Staphylococcus aureus [17] = assay: Bactericidal activity against […] Staphylococcus aureus ATCC 700699 assessed as colony forming units at 5 fold MIC measured after 24 hrs by time kill assay; type: functional
Staphylococcus aureus [18] = assay: Antibacterial activity against vancomycin-sensitive Staphylococcus aureus T144 infected in Balb/c mouse assessed as increase in wound healing at 5 mg/kg applied topically measured daily for 12 days by microscopic analysis; type: functional, organism-based; details: time 12.0 day
THP-1 = assay: Cytotoxicity against human THP-1 cells assessed as reduction in cell viability at >=12.5 uM measured after 48 hrs by resazurin dye based fluorescence assay; details: thp-1, 48 h
Staphylococcus aureus [19] = assay: Antibacterial activity against […] Staphylococcus aureus ATCC 700699 after 24 hrs by broth microdilution method; type: functional
Staphylococcus aureus [20] = assay: Inhibition of Staphylococcus aureus ATCC 700699 N-terminal His6-tagged pyruvate kinase expressed in Escherichia coli NiCo21(DE3) at 12.5 uM using phosphoenolpyruvate as substrate measured for 5 mins by LDH-coupled assay
Staphylococcus aureus [21] = assay: Antibacterial activity against methicillin susceptible Staphylococcus aureus ATCC 25923 at 0.78 to 100 uM after 24 hrs by broth microdilution method; type: functional, organism-based; details: dose microM 0.78-100, time 24.0 hrs
Staphylococcus aureus [22] = assay: Antibacterial activity against methicillin-resistant Staphylococcus aureus USA300 LAC at 0.15 to 25 uM incubated for 24 hrs under low pyruvate containing medium by resazurin dye based fluorescence assay; type: functional, organism-based; details: dose microM 0.15-25, time 24.0 hrs
HepG2 = assay: Cytotoxicity against human HepG2 cells assessed as reduction in cell viability at >12.5 uM measured after 48 hrs by resazurin dye based fluorescence assay; details: hepg2, 48 h
Klebsiella pneumoniae [23] = assay: Synergistic antibacterial activity against Klebsiella pneumoniae ATCC 700603 assessed as FIC after 24 hrs in presence of colistin by checkerboard assay relative to colistin; type: functional
Acinetobacter baumannii [24] = assay: Antibacterial activity against Acinetobacter baumannii ATCC BAA-1605 at 0.78 to 100 uM after 24 hrs by broth microdilution method; type: functional, organism-based; details: dose microM 0.78-100, time 24.0 hrs
Escherichia coli [25] = assay: Synergistic antimicrobial activity against Escherichia coli ATCC BAA 2469 assessed as FICI after 24 hrs in presence of colistin by checkerboard assay; type: functional
Pseudomonas aeruginosa [26] = assay: Synergistic antibacterial activity against Pseudomonas aeruginosa ATCC 27853 assessed as FIC after 24 hrs in presence of colistin by checkerboard assay relative to colistin; type: functional
MRC5 = assay: Cytotoxicity against human MRC5 cells assessed as reduction in cell viability at >=12.5 uM measured after 48 hrs by resazurin dye based fluorescence assay; details: mrc5, 48 h
Escherichia coli [27] = assay: Synergistic antimicrobial activity against Escherichia coli ATCC BAA 2469 assessed as FIC after 24 hrs in presence of colistin by checkerboard assay relative to test compound MIC; type: functional
Klebsiella pneumoniae [28] = assay: Antibacterial activity against Klebsiella pneumoniae ATCC 700603 after 24 hrs by broth microdilution method; type: functional
Pseudomonas aeruginosa [29] = assay: Synergistic antibacterial activity against Pseudomonas aeruginosa ATCC 27853 assessed as FIC after 24 hrs in presence of colistin by checkerboard assay relative to test compound MIC; type: functional
Staphylococcus aureus [30] = assay: Antibacterial activity against vancomycin-sensitive Staphylococcus aureus T144 infected in Balb/c mouse assessed as reduction in bacterial burden at 5 mg/kg applied topically measured after 12 days by colony counting method; type: functional, organism-based; details: time 12.0 day
[31] = Solubility of compound in pH 7.7 DMSO:PBS solution; type: physicochemical; details: buffer
Escherichia coli [32] = assay: Antimicrobial activity against Escherichia coli ATCC BAA 2469 after 24 hrs in presence of colistin by checkerboard assay relative to test compound MIC; type: functional
Staphylococcus aureus [33] = assay: Antibacterial activity against methicillin-resistant pyruvate kinase deficient Staphylococcus aureus USA300 LAC at 0.15 to 25 uM incubated for 24 hrs under low pyruvate containing medium by resazurin dye based fluorescence assay; type: functional, organism-based; details: dose microM 0.15-25, time 24.0 hrs
[34] = Selectivity index, ratio of IC50 for cytotoxicity against human MRC5 cells to MIC90 for antibacterial activity against […] Staphylococcus aureus ATCC 700699; type: toxicity, cell-based; details: read-out: Selectivity Index
HEK293 = assay: Cytotoxicity against HEK293 cells assessed as reduction in cell viability at >12.5 uM measured after 48 hrs by resazurin dye based fluorescence assay; details: human, hek293, 48 h
[35] = target: Pyruvate kinase PKM (Oryctolagus cuniculus) (UniProt P11974); assay: Inhibition of rabbit muscle pyruvate kinase up to 12.5 uM using phosphoenolpyruvate as substrate measured for 5 mins by LDH-coupled assay; details: dose microM <=12.5, time 5.0 min
Pseudomonas aeruginosa [36] = assay: Antibacterial activity against Pseudomonas aeruginosa ATCC 27853 measured after 24 hrs by broth microdilution method; type: functional
[37] = system: Mycobacterium tuberculosis; assay: Antibacterial activity against Mycobacterium tuberculosis H37Rv at 0.78 to 100 uM after 5 days by resazurin dye based fluorescence assay; type: functional, organism-based; details: dose microM 0.78-100, time 5.0 day
Acinetobacter baumannii [38] = assay: Antibacterial activity against Acinetobacter baumannii ATCC BAA-1605 after 24 hrs by broth microdilution method; type: functional
[39] = Selectivity index, ratio of IC50 for cytotoxicity against human THP-1 cells to MIC90 for antibacterial activity against […] Staphylococcus aureus ATCC 700699; type: toxicity, cell-based; details: read-out: Selectivity Index
Enterococcus faecalis [40] = assay: Antibacterial activity against Enterococcus faecalis ATCC 51299 at 0.78 to 100 uM after 24 hrs by broth microdilution method; type: functional, organism-based; details: dose microM 0.78-100, time 24.0 hrs
Acinetobacter baumannii [41] = assay: Synergistic antibacterial activity against Acinetobacter baumannii ATCC BAA-1605 assessed as FICI after 24 hrs in presence of colistin by checkerboard assay; type: functional
[42] = Cytotoxicity against human CLS-54 cells assessed as reduction in cell viability at >12.5 uM measured after 48 hrs by resazurin dye based fluorescence assay; details: cls-54, 48 h

Sequence of Pyruvate kinase PKM (Oryctolagus cuniculus) (P11974 whole entry): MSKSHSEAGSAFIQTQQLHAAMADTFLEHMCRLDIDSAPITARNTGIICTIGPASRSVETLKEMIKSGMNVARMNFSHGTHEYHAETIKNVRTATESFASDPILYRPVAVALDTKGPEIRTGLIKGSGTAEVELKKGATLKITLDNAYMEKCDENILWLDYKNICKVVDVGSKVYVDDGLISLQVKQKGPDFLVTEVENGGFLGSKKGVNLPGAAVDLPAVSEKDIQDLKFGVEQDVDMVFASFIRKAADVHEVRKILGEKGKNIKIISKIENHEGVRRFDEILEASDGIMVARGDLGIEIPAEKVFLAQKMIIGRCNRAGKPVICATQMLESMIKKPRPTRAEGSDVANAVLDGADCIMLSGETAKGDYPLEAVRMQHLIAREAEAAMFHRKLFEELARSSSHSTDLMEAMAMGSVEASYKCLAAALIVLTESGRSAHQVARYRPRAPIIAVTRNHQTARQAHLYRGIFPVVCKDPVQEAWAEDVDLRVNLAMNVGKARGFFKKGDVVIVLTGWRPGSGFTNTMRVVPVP

Compound: Clc1ccc2[nH]cc(-c3cnc(-c4c[nH]c5ccc(Cl)cc45)nc3)c2c1
- MIC (Escherichia coli [1]): > 100 µM
- fold change (FC) (Staphylococcus aureus [2]): 10000
- solubility [3]: Insoluble
- Activity (Enterococcus faecium [4]): Active
- Ratio (Klebsiella pneumoniae [5]): 8
- FIC (Klebsiella pneumoniae [6]): <=0.125
- FIC (Acinetobacter baumannii [7]): <=0.0625
- Activity (Staphylococcus aureus [8]): Active
- Activity (Enterococcus faecium [9]): Active
- FIC (Acinetobacter baumannii [10]): 0.25
- Activity (Staphylococcus aureus [11]): Active
- fractional inhibitory concentration index (FICI) (Klebsiella pneumoniae [12]): <=0.25
- Ratio (Staphylococcus aureus [13]): 2
- Activity (Enterococcus faecalis [14]): Active
- Activity (Erythrocyte): Non-Toxic
- FIC (Escherichia coli [15]): 0.064
- fractional inhibitory concentration index (FICI) (Pseudomonas aeruginosa [16]): <=1.0625
- Activity (Staphylococcus aureus [17]): <10 CFU/ml
- Activity (Staphylococcus aureus [18]): Active
- Activity (THP-1): Toxic
- MIC90 (Staphylococcus aureus [19]): 0.39 µM (≈ 0.148 µg/mL)
- inhibition (Staphylococcus aureus [20]): inactive
- Activity (Staphylococcus aureus [21]): Active
- Activity (Staphylococcus aureus [22]): Active
- Activity (HepG2): Toxic
- FIC (Klebsiella pneumoniae [23]): 0.125
- Activity (Acinetobacter baumannii [24]): Active
- fractional inhibitory concentration index (FICI) (Escherichia coli [25]): <=0.0953
- FIC (Pseudomonas aeruginosa [26]): 1
- Activity (MRC5): Toxic
- FIC (Escherichia coli [27]): <=0.0313
- MIC (Klebsiella pneumoniae [28]): > 100 µM
- FIC (Pseudomonas aeruginosa [29]): <=0.0625
- Activity (Staphylococcus aureus [30]): Active
- solubility [31]: Insoluble
- Ratio (Escherichia coli [32]): 32
- Activity (Staphylococcus aureus [33]): Active
- selectivity ratio [34]: 32
- Activity (HEK293): Toxic
- inhibition [35]: inactive
- MIC (Pseudomonas aeruginosa [36]): > 100 µM
- Activity [37]: Active
- MIC (Acinetobacter baumannii [38]): > 100 µM
- selectivity ratio [39]: 32
- Activity (Enterococcus faecalis [40]): Active
- fractional inhibitory concentration index (FICI) (Acinetobacter baumannii [41]): <=0.3125
- Activity [42]: Toxic
